Laboratory results taken from PubChem BioAssay (NCI).
“And” between values parts separate entries of the source, which are not always exact repeats. Identical values can stand only once.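 1) Cells in 96-well plates. 2) Compound, 48 h, 5 concentrations. 3) Linear interpolation between surrounding doses. 4) Unreached endpoint = highest concentration. GI50: concentration for 50% inhibition of growth. TGI denotes the concentration required for complete inhibition of growth.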

Columns and labels:
Experiment in all cases: DTP human tumour cell line panel, 48 h
A498 renal = test system: A498 renal
COLO 205 colon = test system: COLO 205 colon
K-562 leukemia = test system: K-562 leukemia
NCI-H460 lung = test system: NCI-H460 lung
NCI-H522 lung = test system: NCI-H522 lung
SW-620 colon = test system: SW-620 colon
TK-10 renal = test system: TK-10 renal
MDA-MB-435 = test system: MDA-MB-435
NCI/ADR-RES ovarian = test system: NCI/ADR-RES ovarian
SF-539 CNS = test system: SF-539 CNS

Structure (SMILES): O=C(/C=N/O)Nc1cccc(Cl)c1I
- TGI (A498 renal): > 100 µM
- TGI (COLO 205 colon): > 100 µM
- TGI (K-562 leukemia): > 100 µM
- TGI (NCI-H460 lung): > 100 µM
- TGI (NCI-H522 lung): > 100 µM
- TGI (SW-620 colon): > 100 µM
- TGI (TK-10 renal): > 100 µM

Structure (SMILES): CC(=O)OCCc1cc2ccccc2oc1=O
- TGI (A498 renal): > 100 µM
- TGI (COLO 205 colon): > 100 µM
- TGI (K-562 leukemia): > 100 µM
- TGI (MDA-MB-435): > 100 µM
- TGI (NCI-H460 lung): > 100 µM
- TGI (NCI-H522 lung): > 100 µM
- TGI (NCI/ADR-RES ovarian): > 100 µM
- TGI (SF-539 CNS): > 100 µM
- TGI (SW-620 colon): > 100 µM

Structure (SMILES): Cc1ccc(/C=C2\CCCC(C(NO)c3ccc(C)cc3)C2=NO)cc1 (stereo unspecified)
- TGI (A498 renal): > 100 µM
- TGI (COLO 205 colon): 38.5 µM
- TGI (K-562 leukemia): > 100 µM
- TGI (NCI-H460 lung): 62.6 µM
- TGI (NCI-H522 lung): 76.1 µM
- TGI (SF-539 CNS): > 100 µM
- TGI (SW-620 colon): > 100 µM
- TGI (TK-10 renal): > 100 µM

Structure (SMILES): CCOc1ccccc1NC(=O)C1=C(C)NC(C)=C(C(=O)Nc2ccccc2OCC)C1c1ccc2c(c1)OCO2
- TGI (A498 renal): 84 µM
- TGI (COLO 205 colon): > 100 µM
- TGI (K-562 leukemia): 70.3 µM
- TGI (NCI-H460 lung): > 100 µM
- TGI (NCI-H522 lung): 29.8 µM
- TGI (SF-539 CNS): 84.7 µM
- TGI (SW-620 colon): > 100 µM
- TGI (TK-10 renal): > 100 µM

Structure (SMILES): CCOC(=O)c1cnc2c(ccc3ncccc32)c1OCC
- TGI (A498 renal): > 100 µM
- TGI (COLO 205 colon): > 100 µM
- TGI (K-562 leukemia): > 100 µM
- TGI (NCI-H460 lung): > 100 µM
- TGI (NCI-H522 lung): > 100 µM
- TGI (SF-539 CNS): > 100 µM
- TGI (SW-620 colon): > 100 µM
- TGI (TK-10 renal): > 100 µM

Structure (SMILES): COc1ccc(S(=O)(=O)NNS(C)(=O)=O)cc1OC
- TGI (A498 renal): > 100 µM
- TGI (COLO 205 colon): > 100 µM
- TGI (K-562 leukemia): > 100 µM
- TGI (NCI-H460 lung): > 100 µM
- TGI (NCI-H522 lung): > 100 µM
- TGI (SF-539 CNS): > 100 µM
- TGI (SW-620 colon): > 100 µM
- TGI (TK-10 renal): > 100 µM

Structure (SMILES): Clc1ccc(/C=C/c2csnn2)cc1
- TGI (A498 renal): > 100 µM
- TGI (COLO 205 colon): > 100 µM
- TGI (K-562 leukemia): > 100 µM
- TGI (NCI-H460 lung): > 100 µM
- TGI (NCI-H522 lung): > 100 µM
- TGI (SF-539 CNS): > 100 µM
- TGI (SW-620 colon): > 100 µM
- TGI (TK-10 renal): > 100 µM

Structure (SMILES): Cc1ccc(-n2cc(/C(N)=N/O)c3ccccc3c2=O)cc1
- TGI (COLO 205 colon): > 100 µM
- TGI (K-562 leukemia): > 100 µM
- TGI (NCI-H460 lung): > 100 µM
- TGI (NCI-H522 lung): > 100 µM
- TGI (SF-539 CNS): > 100 µM
- TGI (SW-620 colon): > 100 µM
- TGI (TK-10 renal): > 100 µM

Structure (SMILES): Nc1nc2c(ncn2C2OC(CO)C(O)C2O)c(=O)[nH]1 (stereo unspecified)
- TGI (A498 renal): 8.79 µM
- GI50 (COLO 205 colon): > 100 µM
- TGI (COLO 205 colon): > 100 µM and 113 µM
- GI50 (K-562 leukemia): > 100 µM
- TGI (K-562 leukemia): > 100 µM and 233 µM
- GI50 (MDA-MB-435): > 100 µM
- TGI (MDA-MB-435): > 100 µM
- GI50 (NCI-H460 lung): > 100 µM and 15.5 µM
- TGI (NCI-H460 lung): > 100 µM and 154 µM
- GI50 (NCI-H522 lung): > 100 µM
- TGI (NCI-H522 lung): > 100 µM and 149 µM
- GI50 (NCI/ADR-RES ovarian): > 100 µM
- TGI (NCI/ADR-RES ovarian): > 100 µM and 238 µM
- GI50 (SF-539 CNS): > 100 µM
- TGI (SF-539 CNS): > 100 µM and 160 µM
- GI50 (SW-620 colon): > 100 µM
- TGI (SW-620 colon): > 100 µM and 241 µM

Structure (SMILES): Cc1ncc([N+](=O)[O-])n1CCOc1ccc(C(=O)/C=C/c2ccc(C(F)(F)F)cc2)cc1
- GI50 (A498 renal): 6.57 µM
- TGI (A498 renal): 20.2 µM
- GI50 (COLO 205 colon): 2.11 µM
- TGI (COLO 205 colon): 4.67 µM
- GI50 (K-562 leukemia): 1.53 µM
- TGI (K-562 leukemia): 3.83 µM
- GI50 (MDA-MB-435): 3.56 µM
- TGI (MDA-MB-435): 13.9 µM
- GI50 (NCI-H460 lung): 4.09 µM
- TGI (NCI-H460 lung): 15 µM
- GI50 (NCI-H522 lung): 2.55 µM
- TGI (NCI-H522 lung): 7.74 µM
- GI50 (NCI/ADR-RES ovarian): 2.76 µM
- TGI (NCI/ADR-RES ovarian): 9.29 µM
- GI50 (SF-539 CNS): 1.65 µM
- TGI (SF-539 CNS): 3.07 µM
- GI50 (SW-620 colon): 1.76 µM
- TGI (SW-620 colon): 4.03 µM

Structure (SMILES): Nc1nc2c([nH]1)c1[nH]c3ccccc3c1c1[nH]c3ccccc3c21
- GI50 (A498 renal): 18.8 µM
- TGI (A498 renal): 35 µM
- GI50 (K-562 leukemia): 2.23 µM
- TGI (K-562 leukemia): 5.09 µM
- GI50 (MDA-MB-435): 9.73 µM
- TGI (MDA-MB-435): 22 µM
- GI50 (NCI-H522 lung): 17.2 µM
- TGI (NCI-H522 lung): 34.1 µM
- GI50 (NCI/ADR-RES ovarian): 18.9 µM
- TGI (NCI/ADR-RES ovarian): 45.1 µM
- GI50 (SF-539 CNS): 12.8 µM
- TGI (SF-539 CNS): 25.6 µM
- GI50 (SW-620 colon): 3.31 µM
- TGI (SW-620 colon): 12.4 µM
- GI50 (TK-10 renal): 22.7 µM
- TGI (TK-10 renal): 37.7 µM

Structure (SMILES): Cc1cc2nc3c(C(OC4OC(CO)C(O)C(O)C4O)C(O)CO)nn(-c4ccc(F)cc4)c3nc2cc1C (stereo unspecified)
- TGI (A498 renal): > 100 µM
- TGI (K-562 leukemia): > 100 µM
- TGI (NCI-H460 lung): > 100 µM
- TGI (NCI-H522 lung): > 100 µM
- TGI (SF-539 CNS): > 100 µM
- TGI (TK-10 renal): > 100 µM

Structure (SMILES): CC1(C)N=C(N)N=C(N)N1c1ccc(CCCCCCc2ccc(S(=O)(=O)F)cc2)cc1
- TGI (COLO 205 colon): 12.8 µM
- TGI (K-562 leukemia): > 33.3 µM
- TGI (MDA-MB-435): 21.2 µM
- TGI (NCI-H460 lung): > 37.8 µM
- TGI (NCI-H522 lung): 20.2 µM
- TGI (NCI/ADR-RES ovarian): 70.9 µM
- TGI (SW-620 colon): 4.44 µM
- TGI (TK-10 renal): 15.9 µM

Structure (SMILES): COc1ccc(C2C(C(=O)O)=C(COC(C)=O)Oc3cc4c(cc32)OCO4)c(OC)c1 (stereo unspecified)
- TGI (COLO 205 colon): > 100 µM
- TGI (K-562 leukemia): > 100 µM
- TGI (NCI-H460 lung): > 100 µM
- TGI (SF-539 CNS): > 100 µM
- TGI (SW-620 colon): > 100 µM
- TGI (TK-10 renal): > 100 µM

Structure (SMILES): O=S1(=O)CS(=O)(=O)OCCCCCO1
- TGI (A498 renal): > 100 µM
- TGI (COLO 205 colon): > 100 µM
- TGI (K-562 leukemia): > 100 µM
- TGI (NCI-H460 lung): > 100 µM
- TGI (NCI-H522 lung): > 100 µM
- TGI (SW-620 colon): > 100 µM
- TGI (TK-10 renal): > 100 µM

Structure (SMILES): Nc1cccc(C(=O)/C=C/c2ccccc2O)c1
- TGI (A498 renal): > 100 µM
- TGI (COLO 205 colon): > 100 µM
- TGI (K-562 leukemia): > 100 µM
- TGI (NCI-H460 lung): > 100 µM
- TGI (NCI-H522 lung): > 100 µM
- TGI (SF-539 CNS): > 100 µM
- TGI (SW-620 colon): 29.6 µM
- TGI (TK-10 renal): > 100 µM

Structure (SMILES): Cc1cccc(NC(=O)CSc2nnc(-c3ccc(N=Cc4ccc(Cl)cc4)cc3)o2)c1
- TGI (COLO 205 colon): > 100 µM
- TGI (K-562 leukemia): > 100 µM
- TGI (NCI-H460 lung): > 100 µM
- TGI (NCI-H522 lung): > 100 µM
- TGI (SW-620 colon): > 100 µM
- TGI (TK-10 renal): > 100 µM

Structure (SMILES): NC(=O)C1C(=O)Oc2cccnc21 (stereo unspecified)
- TGI (COLO 205 colon): > 100 µM
- TGI (K-562 leukemia): > 100 µM
- TGI (NCI-H460 lung): > 100 µM
- TGI (NCI-H522 lung): > 100 µM
- TGI (SF-539 CNS): > 100 µM
- TGI (SW-620 colon): > 100 µM
- TGI (TK-10 renal): > 100 µM

Structure (SMILES): c1ccc2c(c1)n1nnnc1c1nnnn21
- TGI (A498 renal): > 100 µM
- TGI (COLO 205 colon): > 100 µM
- TGI (K-562 leukemia): > 100 µM
- TGI (NCI-H460 lung): > 100 µM
- TGI (NCI-H522 lung): > 100 µM
- TGI (SF-539 CNS): > 100 µM
- TGI (SW-620 colon): > 100 µM
- TGI (TK-10 renal): > 100 µM

Structure (SMILES): C=C(c1ccc(C(=O)NCCCn2ccnc2)cc1)c1cc2c(cc1C)C(C)(C)CCC2(C)C
- GI50 (A498 renal): 25.2 µM
- TGI (A498 renal): > 100 µM
- GI50 (COLO 205 colon): 1.12 µM
- TGI (COLO 205 colon): 3.28 µM
- GI50 (K-562 leukemia): 0.651 µM
- TGI (K-562 leukemia): > 100 µM
- GI50 (MDA-MB-435): 0.0734 µM
- TGI (MDA-MB-435): 16 µM
- GI50 (NCI-H460 lung): 0.87 µM
- TGI (NCI-H460 lung): 10.5 µM
- GI50 (NCI-H522 lung): 0.123 µM
- TGI (NCI-H522 lung): 3.72 µM
- GI50 (NCI/ADR-RES ovarian): 0.0807 µM
- TGI (NCI/ADR-RES ovarian): > 36.1 µM
- GI50 (SF-539 CNS): 0.0565 µM
- TGI (SF-539 CNS): 2.17 µM
- GI50 (TK-10 renal): 2.97 µM
- TGI (TK-10 renal): 7.87 µM

Structure (SMILES): COc1cc([C@H]2c3cc4c(cc3[C@H](NCc3ccc(F)cc3)C3COC(=O)[C@H]32)OCO4)cc(OC)c1O (stereo partly specified)
- TGI (A498 renal): 8.02 µM
- TGI (COLO 205 colon): 31.5 µM
- TGI (K-562 leukemia): 41 µM
- TGI (NCI-H460 lung): 12.3 µM
- TGI (NCI-H522 lung): 9.48 µM
- TGI (SF-539 CNS): 5.07 µM
- TGI (SW-620 colon): 21.4 µM
- TGI (TK-10 renal): 41.4 µM
